Counter-ions that a name gives are not always drawn.
Tested on: STING activation (IFNβ release) in iBMDMs
Assay: IFNβ release ELISA after STING ligand (or LPS) stimulation, iBMDMs
Format: cell-based, mouse
Settings: iBMDMs; 3′3′-cGAMP 10 μg/ml, 16 hours; compound 10 μM
Source text: Commercially available enzyme-linked immunosorbent assay (ELISA) kits were used to measure the concentrations of mouse IFNβ (Thermo Fisher Scientific) or human IFNβ (Thermo Fisher Scientific) in culture medium according to the manufacturer's instructions. […]

With 6H05 the “fold increase in IFN-β release” value was 1.18 fold.

With `O=C(O)C(Cc1ccccc1[N+](=O)[O-])=NNc1nc(-c2ccc(Cl)c(Cl)c2)cs1` (mixture of isomers) [4EGI-1] the “fold increase in IFN-β release” value was 4.14 fold.

With `C[C@H]1COC2(CCN(c3nc(=O)c4cc(C(F)(F)F)cc([N+](=O)[O-])c4s3)CC2)O1` (racemic) [BTZ043 Racemate] the “fold increase in IFN-β release” value was 0.69 fold.

In the case of `N[C@@H]1C[C@H]1c1ccccc1` (racemic) [Tranylcypromine (2-PCPA) HCl, Tranylcypromine], the “fold increase in IFN-β release” value is reported as 1.17 fold.

With `COc1cc2c(cc1O)CC[C@@H]1[C@@H]2CC[C@]2(C)[C@@H](O)CC[C@@H]12` [2-Methoxyestradiol (2-MeOE2), 2-Methoxyestradiol] the “fold increase in IFN-β release” value was 2.62 fold.

For `O=[N+]([O-])C=Cc1ccc2c(c1)OCO2` [3,4-Methylenedioxy-β-nitrostyrene], the “fold increase in IFN-β release” value was 0.26 fold.

In the case of `O=C(O)c1ccc(N2C(=O)/C(=C\c3ccc(-c4ccc([N+](=O)[O-])cc4)o3)C=C2c2ccccc2)cc1` [4E1 RCat], the “fold increase in IFN-β release” value is reported as 2.36 fold.

With `CC(C)N(CCC(c1ccccc1)c1cc(CO)ccc1O)C(C)C` (centres unmarked) [5-hydroxymethyl Tolterodine] the “fold increase in IFN-β release” value was 1.10 fold.

With `C=CCNC1=C2C[C@@H](C)C[C@H](OC)[C@H](O)[C@@H](C)/C=C(\C)[C@H](OC(N)=O)[C@@H](OC)/C=C\C=C(/C)C(=O)NC(=CC1=O)C2=O` [17-AAG (Tanespimycin), Tanespimycin] the “fold increase in IFN-β release” value was 1.53 fold.

With `CN1CCc2cc3c(cc2[C@H]1[C@@H]1OC(=O)c2c1ccc1c2OCO1)OCO3` [(+)-Bicuculline] the “fold increase in IFN-β release” value was 1.26 fold.

In the case of `Cl.NCc1c[nH]c(=S)n1[C@@H]1CCc2c(F)cc(F)cc2C1` [(R)-Nepicastat HCl], the “fold increase in IFN-β release” value is reported as 2.13 fold.

In the case of `C[C@H](Oc1cc(-c2cnn(C3CCNCC3)c2)cnc1N)c1c(Cl)ccc(F)c1Cl` [(S)-crizotinib], the “fold increase in IFN-β release” value is reported as 3.05 fold.

For `N#Cc1c(O)c2c(-c3ccc(-c4ccccc4O)cc3)csc2[nH]c1=O` [A-769662], the “fold increase in IFN-β release” value was 2.13 fold.

With `CC1(C)CCC(CN2CCN(c3ccc(C(=O)NS(=O)(=O)c4ccc(NCC5CCOCC5)c([N+](=O)[O-])c4)c(Oc4cnc5[nH]ccc5c4)c3)CC2)=C(c2ccc(Cl)cc2)C1` [ABT-199 (GDC-0199)] the “fold increase in IFN-β release” value was 1.78 fold.

For `CC1(C)CCC(c2ccc(Cl)cc2)=C(CN2CCN(c3ccc(C(=O)NS(=O)(=O)c4ccc(N[C@H](CCN5CCOCC5)CSc5ccccc5)c(S(=O)(=O)C(F)(F)F)c4)cc3)CC2)C1` [ABT-263 (Navitoclax), Navitoclax], the “fold increase in IFN-β release” value was 1.27 fold.

In the case of `CCN(CC)C(=O)c1ccc(C2=CC3(CCNCC3)Oc3cccc(O)c32)cc1` [ADL5859 HCl], the “fold increase in IFN-β release” value is reported as 0.95 fold.

In the case of `O=C(c1ccc(F)cc1)N1CCC[C@H](c2nc(-c3ccc(F)cc3)no2)C1` [ADX-47273], the “fold increase in IFN-β release” value is reported as 1.72 fold.

In the case of `CN(C)Cc1ccc(-c2nc3cccc4c3n2CCNC4=O)cc1` [AG-14361], the “fold increase in IFN-β release” value is reported as 2.41 fold.

In the case of `Cc1ccccc1C(C(=O)NC1CCCCC1)N(C(=O)Cn1ccnc1C)c1cccc(F)c1` (centres unmarked) [AGI-5198], the “fold increase in IFN-β release” value is reported as 1.13 fold.

`O=C(Nc1cccc(C(F)(F)F)c1)Nc1cc(S(=O)(=O)NC2CC2)ccc1-c1ccsc1` [AGI-6780] was tested, and the “fold increase in IFN-β release” value was 2.14 fold.

For `CN1CCCCC1Cn1cc(C(=O)c2cc([N+](=O)[O-])ccc2I)c2ccccc21` (centres unmarked) [AM1241], the “3′3′-cGAMP-induced IFNβ release” value was “promoted” and the “fold increase in IFN-β release” value was 8.07 fold.

With `CC(=O)Nc1nc2c(Oc3cc(-c4ccc(C(F)(F)F)cc4)ncn3)cccc2s1` [AMG-517] the “fold increase in IFN-β release” value was 1.18 fold.

In the case of `C#CC[C@H](c1nc2cc(Cl)ccc2c(=O)n1Nc1ccccc1)N(CCCN)C(=O)c1cccc(Cl)c1F` [ARQ 621], the “fold increase in IFN-β release” value is reported as 1.87 fold.

`O=C1NC(=O)/C(=C/c2ccc(-c3ccc(F)cc3O)o2)S1` [AS-252424] was tested, and the “3′3′-cGAMP-induced IFNβ release” value was “promoted” and the “fold increase in IFN-β release” value was 6.84 fold.

With `Cc1cc2c(C(C)C)c(O)c(O)c(C=O)c2c(O)c1-c1c(C)cc2c(C(C)C)c(O)c(O)c(C=O)c2c1O` [AT101] the “fold increase in IFN-β release” value was 0.13 fold.

In the case of `CCNC(=O)c1noc(-c2cc(C(C)C)c(O)cc2O)c1-c1ccc(CN2CCOCC2)cc1` [AUY922 (NVP-AUY922)], the “fold increase in IFN-β release” value is reported as 0.93 fold.

`C=CC(=O)Nc1cccc(Nc2nc(Nc3ccc(OCCOC)cc3)ncc2F)c1` [AVL-292] was tested, and the “fold increase in IFN-β release” value was 0.16 fold.

`C[C@@H]1COCCN1c1cc(C2(S(C)(=O)=O)CC2)nc(-c2cccc3[nH]ccc23)n1` [AZ20] was tested, and the “fold increase in IFN-β release” value was 0.32 fold.

For `COc1cc(N2CCN(C)CC2)ccc1Nc1nccc(-c2cn(C)c3cnccc23)n1` [AZ191], the “fold increase in IFN-β release” value was 2.01 fold.

For `COc1cc(OC2CCN(C)CC2)ccc1Nc1ncc2c(n1)n(C1CCCC1)c(=O)n2C` [AZ 3146], the “fold increase in IFN-β release” value was 0.10 fold.

`CC(=O)Nc1cccc2c1c(Sc1ccc(Cl)cc1)c(C)n2CC(=O)O` [AZD1981] was tested, and the “fold increase in IFN-β release” value was 3.11 fold.

In the case of `COC1CCN(C(=O)c2cc(Cc3n[nH]c(=O)c4ccccc34)ccc2F)CC1` [AZD2461], the “fold increase in IFN-β release” value is reported as 2.12 fold.

In the case of `COc1cc(CCc2cc(NC(=O)c3ccc(N4CC(C)NC(C)C4)cc3)n[nH]2)cc(OC)c1` (centres unmarked) [AZD4547], the “fold increase in IFN-β release” value is reported as 0.35 fold.

In the case of `Cc1cc([C@@H](C)Nc2ccccc2C(=O)O)c2nc(N3CCOCC3)cc(=O)n2c1` [AZD6482], the “fold increase in IFN-β release” value is reported as 4.47 fold.

With `CN(C)C(=O)c1ccc(S(=O)(=O)c2ccc(NC(=O)[C@@](C)(O)C(F)(F)F)c(Cl)c2)cc1` [AZD7545] the “fold increase in IFN-β release” value was 3.45 fold.

`NC(=O)Nc1cc(-c2cccc(F)c2)sc1C(=O)N[C@H]1CCCNC1` [AZD7762] was tested, and the “fold increase in IFN-β release” value was 0.45 fold.

With `C=CC(=O)Nc1cc(Nc2nccc(-c3cn(C)c4ccccc34)n2)c(OC)cc1N(C)CCN(C)C` [AZD9291] the “fold increase in IFN-β release” value was 0.85 fold.

With `NC(=O)c1ncn([C@@H]2O[C@H](CO)[C@@H](O)[C@H]2O)c1N` [Acadesine] the “fold increase in IFN-β release” value was 1.02 fold.

In the case of `COc1ccc2cccc(CCNC(C)=O)c2c1` [Agomelatine], the “fold increase in IFN-β release” value is reported as 0.97 fold.

For `Oc1ncnc2[nH]ncc12` [Allopurinol], the “fold increase in IFN-β release” value was 3.15 fold.

In the case of `CCOC(=O)[C@H]1O[C@@H]1C(=O)N[C@@H](CC(C)C)C(=O)NCCC(C)C` [Aloxistatin], the “fold increase in IFN-β release” value is reported as 0.31 fold.

For `Cc1c(-c2ccnn2C)cc(C(=O)NCc2ccc(S(C)(=O)=O)cn2)c(=O)n1-c1cccc(C(F)(F)F)c1` [Alvelestat (AZD9668), Alvelestat], the “fold increase in IFN-β release” value was 0.27 fold.

In the case of `CCOC(=O)C1=C(COCCN)NC(C)=C(C(=O)OC)C1c1ccccc1Cl` (centres unmarked) [Amlodipine], the “fold increase in IFN-β release” value is reported as 1.46 fold.

With `COc1cc(F)c(C(C)C)cc1-c1ccc(C(F)(F)F)cc1CN1C(=O)O[C@H](c2cc(C(F)(F)F)cc(C(F)(F)F)c2)[C@@H]1C` [Anacetrapib (MK-0859), Anacetrapib] the “fold increase in IFN-β release” value was 2.12 fold.

In the case of `CC(C)(C#N)c1cc(Cn2cncn2)cc(C(C)(C)C#N)c1` [Anastrozole], the “fold increase in IFN-β release” value is reported as 0.98 fold.

In the case of `COc1ccc(C(=O)N2CCCC2=O)cc1` [Aniracetam], the “fold increase in IFN-β release” value is reported as 1.02 fold.

In the case of `N#CC1(c2ccc(NC(=O)c3cccnc3NCc3ccncc3)cc2)CCCC1` [Apatinib], the “fold increase in IFN-β release” value is reported as 0.26 fold.

For `O=c1cc(-c2ccc(O)cc2)oc2cc(O)cc(O)c12` [Apigenin], the “fold increase in IFN-β release” value was 0.44 fold.

`COc1ccc(-n2nc(C(N)=O)c3c2C(=O)N(c2ccc(N4CCCCC4=O)cc2)CC3)cc1` [Apixaban] was tested, and the “fold increase in IFN-β release” value was 2.83 fold.

For `O=C1C(=O)N(Cc2ccc(Cl)c(Cl)c2)c2ccccc21` [Apoptosis Activator 2], the “fold increase in IFN-β release” value was 0.17 fold.

In the case of `C[C@@H](O[C@H]1OCCN(Cc2n[nH]c(=O)[nH]2)[C@H]1c1ccc(F)cc1)c1cc(C(F)(F)F)cc(C(F)(F)F)c1` [Aprepitant], the “fold increase in IFN-β release” value is reported as 0.76 fold.

`O=C(O)c1cccc(-c2noc(-c3ccccc3F)n2)c1` [Ataluren (PTC124), Ataluren] was tested, and the “fold increase in IFN-β release” value was 1.74 fold.

For `CN(C)C(=O)Nc1cccc(-c2ccc(N(C)C)cc2)c1` [Atglistatin], the “fold increase in IFN-β release” value was 0.91 fold.

`CC(C)c1c(C(=O)Nc2ccccc2)c(-c2ccccc2)c(-c2ccc(F)cc2)n1CC[C@@H](O)C[C@@H](O)CC(=O)[O-].CC(C)c1c(C(=O)Nc2ccccc2)c(-c2ccccc2)c(-c2ccc(F)cc2)n1CC[C@@H](O)C[C@@H](O)CC(=O)[O-].[Ca+2]` [Atorvastatin Calcium] was tested, and the “fold increase in IFN-β release” value was 1.45 fold.

`CC(=O)OCOC(=O)CN(CC(=O)OCOC(C)=O)c1ccccc1OCCOc1ccccc1N(CC(=O)OCOC(C)=O)CC(=O)OCOC(C)=O` [BAPTA-AM] was tested, and the “fold increase in IFN-β release” value was 0.52 fold.

With `CC[C@@H]1C(=O)N(C)c2cnc(Nc3ccc(C(=O)NC4CCN(C)CC4)cc3OC)nc2N1C1CCCC1` [BI 2536] the “fold increase in IFN-β release” value was 0.45 fold.

`CC(C)CCN1c2nc(Nc3cc(F)c(O)c(F)c3)ncc2N(C)C(=O)C1C` (centres unmarked) [BI-D1870] was tested, and the “fold increase in IFN-β release” value was 0.79 fold.

With `C/C(=C\C(=O)Nc1ccccc1C(=O)O)c1ccc2ccccc2c1` [BIBR 1532] the “fold increase in IFN-β release” value was 2.10 fold.

For `COc1ccc2c(c1)c(CC(=O)N1CCOCC1)c(C)n2C(=O)c1ccc(Cl)cc1` [BML-190], the “fold increase in IFN-β release” value was 0.35 fold.

In the case of `COc1ccnc2[nH]cc(C(=O)C(=O)N3CCN(C(=O)c4ccccc4)C[C@H]3C)c12` [BMS-378806], the “fold increase in IFN-β release” value is reported as 1.70 fold.
